In brackets after ≈: the same amount, converted by molar mass.
Legend:
[1] = Metabolic stability in human liver microsomes assessed as intrinsic clearance at 0.5 uM incubated for 60 mins in presence of NADPH by tandem quadrupole-Time of Flight MS; type: ADME, Microsome; conditions: 1 h
[2] = biological target: T1, Dihydroorotate dehydrogenase (quinone), mitochondrial (Plasmodium falciparum (isolate 3D7), UniProt Q08210); experiment: Inhibition of N-terminal His6-tagged recombinant Plasmodium falciparum DHODH (158 to 569 residues) N-terminally truncated soluble domain extracted from Escherichia coli phage resistant BL21-DE3 using CoQD/DHA/DCIP as substrates
T1 sequence (Q08210 whole entry): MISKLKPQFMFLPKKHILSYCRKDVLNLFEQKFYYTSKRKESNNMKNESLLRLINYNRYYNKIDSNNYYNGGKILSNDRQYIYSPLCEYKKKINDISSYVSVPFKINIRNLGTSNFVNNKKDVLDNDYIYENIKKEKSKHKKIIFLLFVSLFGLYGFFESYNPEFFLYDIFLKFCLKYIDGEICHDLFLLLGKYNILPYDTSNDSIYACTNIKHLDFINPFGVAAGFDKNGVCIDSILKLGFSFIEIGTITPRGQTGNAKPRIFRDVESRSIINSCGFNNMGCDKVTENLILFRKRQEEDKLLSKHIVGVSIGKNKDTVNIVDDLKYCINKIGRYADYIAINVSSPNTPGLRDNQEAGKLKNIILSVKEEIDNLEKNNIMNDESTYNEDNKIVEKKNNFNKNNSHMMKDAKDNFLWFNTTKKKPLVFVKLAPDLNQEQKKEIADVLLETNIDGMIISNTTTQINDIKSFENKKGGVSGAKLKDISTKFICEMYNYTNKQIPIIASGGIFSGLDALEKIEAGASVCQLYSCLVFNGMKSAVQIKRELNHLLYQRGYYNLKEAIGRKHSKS

[3] = biological target: Dihydroorotate dehydrogenase (quinone), mitochondrial (Homo sapiens, UniProt Q02127); experiment: Inhibition of C-terminal His6-tagged recombinant human DHODH (29 to 395 residues) N-terminally truncated soluble domain extracted from Escherichia coli phage resistant BL21-DE3 using CoQD/DHA/DCIP as substrates
Sequence of Dihydroorotate dehydrogenase (quinone), mitochondrial (Homo sapiens, UniProt Q02127) (Q02127 whole entry, the tested form may be a part): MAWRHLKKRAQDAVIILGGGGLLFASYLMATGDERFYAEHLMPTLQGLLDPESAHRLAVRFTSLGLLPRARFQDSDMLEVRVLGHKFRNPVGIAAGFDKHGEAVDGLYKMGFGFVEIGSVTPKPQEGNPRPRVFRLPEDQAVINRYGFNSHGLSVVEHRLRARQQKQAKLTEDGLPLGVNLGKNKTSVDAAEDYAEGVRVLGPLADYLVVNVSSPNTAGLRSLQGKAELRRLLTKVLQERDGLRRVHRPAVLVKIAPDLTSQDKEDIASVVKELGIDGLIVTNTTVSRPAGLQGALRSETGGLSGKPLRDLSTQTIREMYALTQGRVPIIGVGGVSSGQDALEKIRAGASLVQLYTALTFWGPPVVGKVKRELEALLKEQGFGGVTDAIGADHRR

Plasmodium falciparum = experiment: Antiparasitic activity against asexual blood stage Plasmodium falciparum 3D7 incubated for 72 hrs by SYBR Green assay; type: functional, organism-based; conditions: 3D7, 72 h
[4] = Kinetic solubility of compound at pH 6.5 measured after 30 mins by nephelometry; type: physicochemical; conditions: buffer; for solubility kinetic at 0.5 h: pH 6.5, read-out: Kinetic_solubility; for Kinetic_solubility: pH 6.5, 0.5 h
Albumin = Albumin (Homo sapiens, UniProt P02768); experiment: Protein binding to albumin (unknown origin) in ALBUMAX medium; type: ADME; conditions: read-out: PB (converted)
Sequence of Albumin (P02768 whole entry): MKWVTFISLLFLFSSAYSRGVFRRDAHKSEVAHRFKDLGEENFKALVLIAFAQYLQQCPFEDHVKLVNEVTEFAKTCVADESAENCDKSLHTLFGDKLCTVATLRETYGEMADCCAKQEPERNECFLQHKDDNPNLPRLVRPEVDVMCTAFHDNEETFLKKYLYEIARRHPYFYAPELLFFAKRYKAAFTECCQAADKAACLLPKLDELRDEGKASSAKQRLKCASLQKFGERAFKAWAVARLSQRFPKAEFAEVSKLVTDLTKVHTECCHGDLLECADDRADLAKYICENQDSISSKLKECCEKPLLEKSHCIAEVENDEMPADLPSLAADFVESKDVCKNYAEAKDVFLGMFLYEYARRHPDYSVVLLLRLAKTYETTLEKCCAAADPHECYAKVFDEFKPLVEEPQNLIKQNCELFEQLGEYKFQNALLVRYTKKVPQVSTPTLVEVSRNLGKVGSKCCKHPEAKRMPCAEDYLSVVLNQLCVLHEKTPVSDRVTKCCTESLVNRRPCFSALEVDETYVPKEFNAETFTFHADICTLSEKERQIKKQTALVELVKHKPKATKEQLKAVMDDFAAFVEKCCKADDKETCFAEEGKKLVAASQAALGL

[5] = Half life in overnight-fasted male Sprague-Dawley rat at 3 mg/kg, po or 1 mg/kg, iv measured upto 72 hrs by LCMS analysis; type: ADME, organism-based; conditions: in vivo
[6] = Plasma protein binding in rat measured for 6 hrs by rapid equilibrium dialysis; type: ADME, cell-free
[7] = Plasma protein binding in human measured for 6 hrs by rapid equilibrium dialysis; type: ADME, cell-free
[8] = Protein binding in human hepatocytes; type: ADME, cell-based, Hepatocyte; conditions: read-out: PB (converted)
[9] = Oral absorption in overnight-fasted male Sprague-Dawley rat at 3 mg/kg measured upto 72 hrs by LCMS analysis; type: ADME, organism-based; conditions: in vivo
[10] = Oral bioavailability in overnight-fasted male Sprague-Dawley rat at 3 mg/kg measured upto 72 hrs by LCMS analysis; type: ADME, organism-based; conditions: in vivo
[11] = Ratio of drug concentration in Sprague-Dawley rat brain to plasma at 1 uM measured for 5 to 60 mins by LCMS analysis; type: ADME, cell-free; conditions: time 5-60 min
[12] = Partition coefficient, log D of compound at pH 7.4 measured after 24 hrs by LCMS analysis; type: physicochemical; conditions: octanol/water, pH 7.4, 24 h

| fraction unbound (Albumin) | t1/2 [5] [h] | PPB [6] [%] | PPB [7] [%] | fraction unbound [8] | Fa at 72 h [9] [%] | F [10] [%] | BPR [11] | SMILES | intrinsic clearance (CLint) [1] [µL/min/mg] | IC50 [2] [nM] | IC50 [3] [nM] | EC50 (Plasmodium falciparum) [nM] | solubility kinetic at 0.5 h [4] [µM] | Kinetic_solubility [4] [µM] | logD [12] |
| --- | --- | --- | --- | --- | --- | --- | --- | --- | --- | --- | --- | --- | --- | --- | --- |
| – | – | – | – | – | – | – | – | CCn1cc(Cl)c2c(Cc3ccc(N4CCCCC4)nc3)n(C)nc2c1=O | 160 | 17 | 5400 | 62 | 40 (≈ 15.4 µg/mL) | – | – |
| – | – | – | – | – | – | – | – | CCn1ccc2c(Cc3ccc(C(F)(F)F)nc3)n(C)nc2c1=O | < 7 | 1500 | > 30000 | 580 | – | > 300 | – |
| – | – | – | – | – | – | – | – | Cn1nc2c(=O)n(C3CC3)ccc2c1Cc1ccc(C(F)(F)F)c(C#N)c1 | < 7 | 140 | > 100000 | 81 | 67 (≈ 24.9 µg/mL) | – | – |
| 0.821 | 3.4 | 75.4 | – | – | – | – | – | CCn1ccc2c([C@@](O)(CC)c3ccc(C(F)(F)F)nc3)n(C)nc2c1=O | 3.6 | – | – | 2 | 40 (≈ 15.2 µg/mL) | – | – |
| – | – | – | – | – | – | – | – | CCn1cc(Cl)c2c(Cc3ccc(N4CCOCC4)nc3)n(C)nc2c1=O | 15 | 190 | > 100000 | 370 | 65 (≈ 25.2 µg/mL) | – | – |
| – | – | – | – | – | – | – | – | Cn1nc2c(=O)n(C3CC3)ccc2c1[C@](O)(c1ccc(C(F)(F)F)c(C#N)c1)C1CC1 | < 3 | 18 | > 30000 | 1 | – | < 5 | – |
| – | – | – | – | – | – | – | – | CCn1cc(C2CC2)c2c(Cc3cnc(C(F)(F)F)c(OC)c3)n(C)nc2c1=O | 25 | 57 | > 100000 | 17 | 60 (≈ 24.4 µg/mL) | – | – |
| – | – | – | – | – | – | – | – | CC[C@@](O)(c1ccc(F)c(Cl)c1)c1c2ccn(C3CC3)c(=O)c2nn1C | 8.4 | 7 | 700 | 1 | 40 (≈ 15 µg/mL) | – | – |
| 0.289 | 19 | 93 | 95.8 | 0.578 | 4.6 | – | – | Cn1nc2c(=O)n(C3CC3)ccc2c1[C@](O)(c1cnc(C(F)(F)F)c(Cl)c1)C1CC1 | < 3 | – | > 30000 | 3 | 12.5 (≈ 5.49 µg/mL) | – | – |
| 0.63 | 15 | – | – | 0.574 | 82 | 4 | 0.73 | CC[C@@](N)(c1cnc(C(F)(F)F)c(Cl)c1)c1c2ccn(C3CC3)c(=O)c2nn1C | < 3 | – | – | 3 | – | > 100 | – |
| – | – | – | – | – | 40 | – | – | Cn1nc2c(=O)n(C3CC3)ccc2c1[C@](O)(c1ccc(C(F)(F)F)nc1)C1CC1 | < 3 | – | > 30000 | 7 | 20 (≈ 8.09 µg/mL) | – | – |
| – | – | – | – | – | – | – | – | Cn1nc2c(=O)n(C3CC3)cc(C3CC3)c2c1Cc1ccc(C(F)(F)F)nc1 | < 7 | 43 | 17000 | 32 | 65 (≈ 25.2 µg/mL) | – | – |
| – | – | – | – | – | – | – | – | CCn1cc(C2CC2)c2c(Cc3ccc(C(F)(F)F)c(C#N)c3)n(C)nc2c1=O | 64 | 15 | 11000 | 4 | 15 (≈ 6.01 µg/mL) | – | – |
| – | – | – | – | – | – | – | – | Cn1nc2c(=O)n(C3CC3)ncc2c1[C@](O)(c1ccc(C(F)(F)F)c(C#N)c1)C(F)(F)F | < 3 | 19 | > 30000 | 1 | 20 (≈ 9.15 µg/mL) | – | – |
| 0.499 | 31 | – | – | – | 15 | – | – | Cc1nn(C2CC2)c(=O)c2nn(C)c(Cc3ccc(C(F)(F)F)c(C#N)c3)c12 | – | – | – | – | – | – | – |
| – | – | – | – | – | – | – | – | CC[C@@](O)(c1ccc(C(F)(F)F)c(C#N)c1)c1c2ccn(C3CC3)c(=O)c2nn1C | < 3 | 19 | 960 | 1 | 20 (≈ 8.33 µg/mL) | – | – |
| – | – | – | – | – | – | – | – | CCn1cc(C2CC2)c2c(CN3CCC4(CCC4)CC3)n(C)nc2c1=O | 130 | 8 | 22000 | 15 | 80 (≈ 28.4 µg/mL) | – | – |
| – | – | – | – | – | – | – | – | CCn1cc(C2CC2)c2c(CN3CCC(F)(F)C(C)(C)C3)n(C)nc2c1=O | 160 | 21 | > 30000 | 15 | 12.5 (≈ 4.73 µg/mL) | – | – |
| – | – | – | – | – | – | – | – | CCn1cc(C2CC2)c2c(Cc3ccc(C(F)(F)F)c(F)c3)n(C)nc2c1=O | 52 | 14 | 14000 | 8 | 16 (≈ 6.29 µg/mL) | – | – |
| – | – | 64 | 70.4 | – | – | – | 0.84 | CCn1ccc2c([C@](O)(c3cnc(C(F)(F)F)c(Cl)c3)C3CC3)n(C)nc2c1=O | 3.2 | – | > 100000 | 2 | 40 (≈ 17.1 µg/mL) | – | – |
| – | – | – | – | – | – | – | – | Cc1cn(C2CC2)c(=O)c2nn(C)c(Cc3ccc(C(F)(F)F)nc3)c12 | < 7 | 89 | 52000 | 45 | 130 (≈ 47.1 µg/mL) | – | – |
| – | – | – | – | – | – | – | – | CCn1cc(C)c2c(Cc3ccc(C(F)(F)F)nc3)n(C)nc2c1=O | < 7 | 70 | > 100000 | 44 | – | > 280 | – |
| – | – | – | – | – | – | – | – | Cn1nc2c(=O)n(C3CC3)cnc2c1[C@](O)(c1ccc(C(F)(F)F)c(Cl)c1)C(F)(F)F | < 3 | 5 | 6500 | 77000 | 20 (≈ 9.34 µg/mL) | – | – |
| 0.558 | – | – | – | – | 100 | – | 0.72 | CCn1cc(Cl)c2c(Cc3ccc(C(F)(F)F)nc3)n(C)nc2c1=O | 14 | – | 72000 | 14 | 70 (≈ 26 µg/mL) | – | – |

| SMILES | fraction unbound (Albumin) | t1/2 [5] [h] | PPB [6] [%] | PPB [7] [%] | fraction unbound [8] | Fa at 72 h [9] [%] | F [10] [%] | BPR [11] | intrinsic clearance (CLint) [1] [µL/min/mg] | IC50 [2] [nM] | IC50 [3] [nM] | EC50 (Plasmodium falciparum) [nM] | solubility kinetic at 0.5 h [4] [µM] | Kinetic_solubility [4] [µM] | logD [12] |
| --- | --- | --- | --- | --- | --- | --- | --- | --- | --- | --- | --- | --- | --- | --- | --- |
| CCn1cc(C)c2c([C@H](N)c3ccc(C(F)(F)F)nc3)n(C)nc2c1=O | – | – | – | – | – | – | – | 1.1 | < 3 | 280 | > 100000 | 70 | – | > 320 | 1.82 |

Source: ChEMBL document CHEMBL6087456 (J Med Chem, 2025)
